Data set [1] is described as follows: Lipophilicity: transfer potential at ITIES (water/1,6-dichlorohexane) by DPV. The format is physicochemical. The conditions noted are these: aqueous phase C=0.32 mM to 1,6-dichlorohexane, physiological pH. The procedure:
In an embodiment, and as an example, the AntiOxBEN1 and AntiOxBEN2 lipophilic properties were evaluated using differential pulse voltammetry (DPV) at physiological pH. The used technique is often used to mimic the transfer of ionic drugs through biological membranes as the process occurs at the interface between two immiscible electrolyte solutions (ITIES). The transfer potential (Etr) at which the ionic drug, initially present in the aqueous phase (C=0.32 mM), is transferred to 1,6-dichlorohexane (DCH) phase is measured by differential pulse voltammetry (DPV). In the ITIES model, the transfer potential (Etr) becomes less positive with the increasing of the drug lipophilic character.
In an embodiment, the electrochemical analytical data was obtained using a computer controlled potentiostat Autolab PGSTAT302N (Metrohm Autolab, Utrecht, Netherlands). Generally, cyclic voltammetry (CV) data was acquired at a scan rate of 50 mVs^−1. Differential pulse voltammetry (DPV) results were acquired at a step potential of 4 mV, pulse amplitude of 50 mV and scan rate of 8 mVs^−1. The electrochemical signals were monitored by the General Purpose Electrochemical System (GPES) version 4.9, software package. […]

For data set [2], the system named is mitochondrial permeability transition pore (mPTP). In words: Mitochondrial swelling / mitochondrial permeability transition pore opening. The note with it: 2.5, 5, 10 μM pre-incubated 5 min before Ca2+. Type of data set: biochemical, rat. The procedure: In an embodiment, and as an example, the effects of some AntiOxBENs on mitochondrial permeability transition pore (mPTP) opening were evaluated. In general, the tested AntiOxBENs had no effect per se on mPTP opening for all tested concentrations.
Increasing concentrations of AntiOxBENs (2.5-10 μM) were added to the reaction medium (200 mM sucrose, 1 mM KH2PO4, 10 mM Tris (pH 7.4), 5 mM succinate and 10 μM EGTA supplemented with 1.5 μM rotenone), in the presence of RLM (1 mg), and allowed to incubate for a 5 min period before the assay. The experiments were initiated by the addition of a suitable concentration of Ca^2+ (15-50 μM), titrated every day. […] The reaction was stirred continuously and the temperature maintained at 37° C.

In the case of `O=C(NCCCCCC[P+](c1ccccc1)(c1ccccc1)c1ccccc1)c1ccc(O)c(O)c1.[Br-]` [AntiOxBEN1, 6-(3,4-dihydroxybenzamido)hexyltriphenylphosphonium bromide], the “transfer potential (Etr)” value in data set [1] is 0.405 V.
Turning to `O=C(NCCCCCC[P+](c1ccccc1)(c1ccccc1)c1ccccc1)c1cc(O)c(O)c(O)c1.[Br-]` [AntiOxBEN2, 6-(3,4,5-trihydroxybenzamido)hexyltriphenylphosphonium bromide], the “transfer potential (Etr)” value in data set [1] amounted to 0.495 V.
With `O=C(CCCCC[P+](c1ccccc1)(c1ccccc1)c1ccccc1)NCCCCCCNC(=O)c1cc(O)c(O)c(O)c1.[Br-]` [AntiOxBEN3, [5-(6-(3,4,5-trihydroxybenzamido)hexylamino)carbonylpentyl]triphenylphosphonium bromide], in data set [2], the “concentration-dependent inhibition of calcium-dependent mPTP opening” value was “caused a concentration-dependent inhibition”.
